In assay [1] the test system is cultured human mast cells (CHMC). The assay can be described thus: CHMC low cell density IgE activation: tryptase assay. In kind it is cell-based. The note with it: Homo sapiens, Mast cell, low cell density CHMC, IgE activation. The gist of the method:
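CHMC were seeded at 1000–1500 cells/well in MT buffer and incubated 1 hr at 37 °C. They were then stimulated with anti-IgE for 30 min at 37 °C, with unstimulated wells as controls. Released tryptase in the supernatant was measured with a fluorogenic substrate after 30 min at room temperature.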

The test system is the same in assay [2]. The assay can be described thus: CHMC low cell density ionomycin activation: tryptase assay. Type of assay: cell-based. To be noted: Homo sapiens, Mast cell, low cell density CHMC, read-out: LD Tryptase, CHMC, Iono, 3 pt.
The target of another assay is T1, Syk kinase (Homo sapiens, UniProt P43405).
T1 construct: purchased Upstate, Lake Placid N.Y
Nature of the assay: Syk kinase biochemical fluorescence polarization assay. To be noted: isolated Syk kinase, read-out: fp_syk, 11 pt. The procedure:
Many of the 2,4-pyrimidinediamine compounds were tested for the ability to inhibit Syk kinase catalyzed phosphorylation of a peptide substrate in a biochemical fluorescenced polarization assay with isolated Syk kinase. In this experiment, Compounds were diluted to 1% DMSO in kinase buffer (20 mM HEPES, pH 7.4, 5 mM MgCl2, 2 mM MnCl2, 1 mM DTT, 0.1 mg/mL acetylated Bovine Gamma Globulin). Compound in 1% DMSO (0.2% DMSO final) was mixed with ATP/substrate solution at room temperature. Syk kinase (Upstate, Lake Placid N.Y.) was added to a final reaction volume of 20 uL, and the reaction was incubated for 30 minutes at room temperature. […] EDTA (10 mM final)/anti-phosphotyrosine antibody (1× final)/fluorescent phosphopeptide tracer (0.5× final) was added in FP Dilution Buffer to stop the reaction for a total volume of 40 uL according to manufacturer's instructions (PanVera Corporation) The plate was incubated for 30 minutes in the dark at room temperature. Plates were read on a Polarion fluorescence polarization plate reader (Tecan). Data were converted to amount of phosphopeptide present using a calibration curve generated by competition with the phosphopeptide competitor provided in the Tyrosine Kinase Assay Kit, Green (PanVera Corporation).
For orientation: Polarisation of emitted light reports the rotation of a fluorescent probe.

The mark [3] stands for this setting: tryptase, 3 pt, read-out: LD Tryptase, CHMC, IgE, 3 pt.
Where [4] appears, read: tryptase, 8 pt, read-out: LD Tryptase, CHMC, IgE, 8 pt.
Where [5] appears, read: tryptase release, 3 pt, read-out: LD Tryptase, CHMC, IgE, 3 pt.
Where [6] appears, read: tryptase release, 8 pt, read-out: LD Tryptase, CHMC, IgE, 8 pt.

Read-outs that look alike come from different tables or passages of the source. Some results are limits rather than exact numbers.

Regarding `COc1ccc(Nc2nc(Nc3cccc(-c4ncco4)c3)ncc2F)cc1OC` [Compound 423, N4-(3,4-Dimethoxyphenyl)-5-fluoro-N2-[3-(oxazol-2-yl)phenyl]-2,4-pyrimidinediamine], the IC50 in assay [1] (setting [3]) is less than 10 µM; in assay [1] (setting [4]), less than 10 µM; in assay [2] (tryptase, 3 pt), greater than 10 µM; at Syk kinase (11 pt) it was less than 10 µM.

In the case of `COc1ccc(N(C)c2nc(Cl)ncc2F)cc1OC` [Compound 417], the IC50 was greater than 10 µM in assay [1] (setting [3]); greater than 10 µM in assay [1] (setting [4]); greater than 10 µM in assay [2] (tryptase, 3 pt); greater than 10 µM on Syk kinase (11 pt).

As for `COc1cc(Nc2nc(Nc3cc(C)cc(C)c3)ncc2F)cc(OC)c1` [Compound 350], the IC50 in assay [1] (setting [3]) is less than 10 µM; in assay [1] (setting [4]), less than 10 µM; in assay [2] (tryptase, 3 pt) it was greater than 10 µM; at Syk kinase (11 pt), less than 10 µM.

With `COc1c(C)cc(Nc2ncc(F)c(Nc3cccc(NC4=NCCN4)c3)n2)cc1C` [Compound 1093], the IC50 in assay [1] (tryptase readout, 3 pt, read-out: LD Tryptase, CHMC, IgE, 3 pt) is less than 10 µM; in assay [1] (tryptase readout, 8 pt, read-out: LD Tryptase, CHMC, IgE, 8 pt), less than 10 µM; in assay [2] (tryptase readout, 3 pt), greater than 10 µM; on Syk kinase (11 pt) it was less than 10 µM.

In the case of `O=C(Nc1ccc(Nc2ncc(F)c(NC3CCCCC3)n2)cc1)c1ccccc1` [Compound 1174, N2-(4-Benzamidophenyl)-N4-cyclohexyl-5-fluoro-2,4-pyrimidinediamine], the IC50 in assay [1] (setting [3]) was greater than 10 µM; in assay [1] (setting [4]), less than 10 µM; in assay [2] (tryptase, 3 pt), greater than 10 µM; on Syk kinase (11 pt) it was less than 10 µM.

For `COc1ccc(Nc2nc(Nc3ccc4nc(C)[nH]c4c3)ncc2F)cc1Cl` [Compound 808, N4-(3-Chloro-4-methoxyphenyl)-5-fluoro-N2-(2-methyl-3H-benzimidazol-5-yl)-2,4-pyrimidinediamine], the IC50 in assay [1] (setting [5]) is less than 10 µM; in assay [1] (setting [6]), less than 10 µM; in assay [2] (tryptase release, 3 pt), greater than 10 µM; on Syk kinase (11 pt), less than 10 µM.

On to `COc1ccc(Nc2nc(Nc3ccc4[nH]c(C(F)(F)F)nc4c3)ncc2F)cc1Cl` [Compound 800, N4-(3-Chloro-4-methoxyphenyl)-5-fluoro-N2-(2-trifluoromethyl-1H-benzimidazol-5-yl)-2,4-pyrimidinediamine], for which the IC50 in assay [1] (setting [5]) is less than 10 µM; in assay [1] (setting [6]) it was less than 10 µM; in assay [2] (tryptase release, 3 pt), less than 10 µM; at Syk kinase (11 pt), less than 10 µM.

As for `Fc1cnc(Nc2ccc3[nH]c(C(F)(F)F)nc3c2)nc1Nc1ccc(Cl)c(Cl)c1` [Compound 801, N4-(3,4-Dichlorophenyl)-5-fluoro-N2-(2-trifluoromethyl-1H-benzimidazol-5-yl)-2,4-pyrimidinediamine], the IC50 is less than 10 µM in assay [1] (setting [5]); less than 10 µM in assay [1] (setting [6]); less than 10 µM in assay [2] (tryptase release, 3 pt); less than 10 µM at Syk kinase (11 pt).

Turning to `CNC(=O)COc1ccc(Nc2nc(Nc3ccc4ccn(CC(=O)NC)c4c3)ncc2F)cc1Cl` [Compound 648, N4-[3-Chloro-4-(N-methylamino)carbonylmethyleneoxyphenyl]-5-fluoro-N2-[1-(N-methylamino)carbonylmethyleneindol-6-yl]-2,4-pyrimidinediamine], the IC50 is less than 10 µM in assay [1] (tryptase release, 3 point, read-out: LD Tryptase, CHMC, IgE, 3 pt); less than 10 µM in assay [1] (tryptase release, 8 point, read-out: LD Tryptase, CHMC, IgE, 8 pt); greater than 10 µM in assay [2] (tryptase release, 3 point); less than 10 µM at Syk kinase (11 point).

As for `COc1ccc(N(C)c2nc(Nc3cccc(-c4ncco4)c3)ncc2F)cc1OC` [Compound 439, N4-(3,4-Dimethoxyphenyl)-5-fluoro-N4-methyl-N2-[3-(oxazol-2-yl)phenyl]-2,4-pyrimidinediamine], the IC50 was less than 10 µM in assay [1] (setting [3]); less than 10 µM in assay [1] (setting [4]); greater than 10 µM in assay [2] (tryptase, 3 pt); greater than 10 µM at Syk kinase (11 pt).

Turning to `COc1cc(OC)cc(N(C)c2nc(Nc3cc(C)cc(C)c3)ncc2F)c1` [Compound 399, N4-(3,5-Dimethoxyphenyl)-N2-(3,5-dimethylphenyl)-5-fluoro-N4-methyl-2,4-pyrimidinediamine], the IC50 in assay [1] (setting [3]) was less than 10 µM; in assay [1] (setting [4]), less than 10 µM; in assay [2] (tryptase, 3 pt), greater than 10 µM; on Syk kinase (11 pt) it was less than 10 µM.

Take `CN1CCN(c2ccc(Nc3ncc(F)c(NC4CCCCC4)n3)cc2)CC1` [Compound 1164, N4-Cyclohexyl-5-fluoro-N2-[4-(4-methylpiperazino)phenyl]-2,4-pyrimidinediamine]: the IC50 in assay [1] (setting [3]) was less than 10 µM; in assay [2] (tryptase, 3 pt), greater than 10 µM; at Syk kinase (11 pt), less than 10 µM.

On to `CNC(=O)CNC(=O)c1ccc(Nc2ncc(F)c(Nc3ccc4c(c3)C(N)CCO4)n2)cc1` (racemic) [Compound 1299, (R,S)-N4-[4-Amino-3,4-dihydro-2H-1-benzopyran-6-yl]-5-fluoro-N2-[4-[N-(N-methylamino)carbonylmethylene]aminocarbonylphenyl]-2,4-pyrimidinediamine], for which the IC50 in assay [1] (setting [3]) is less than 10 µM; in assay [1] (setting [4]) it was less than 10 µM; in assay [2] (tryptase, 3 pt), greater than 10 µM; on Syk kinase (11 pt) it was less than 10 µM.

As for `Cc1nc2ccc(Nc3ncc(F)c(Nc4ccc(Cl)c(Cl)c4)n3)cc2[nH]1` [Compound 809, N4-(3,4-Dichlorophenyl)-5-fluoro-N2-(2-methyl-3H-benzimidazol-5-yl)-2,4-pyrimidinediamine], the IC50 in assay [1] (setting [5]) was less than 10 µM; in assay [1] (setting [6]), less than 10 µM; in assay [2] (tryptase release, 3 pt) it was greater than 10 µM; on Syk kinase (11 pt), less than 10 µM.

As to `Fc1cnc(Nc2cccc(-c3ncco3)c2)nc1Nc1cc(C2CC2)n[nH]1` [Compound 1144, N4-(3-Cyclopropyl-1H-pyrazol-5-yl)-5-fluoro-N2-[3-(oxazol-2-yl)phenyl]-2,4-pyrimidinediamine], the IC50 is less than 10 µM in assay [1] (setting [3]); less than 10 µM in assay [1] (setting [4]); greater than 10 µM in assay [2] (tryptase, 3 pt); less than 10 µM on Syk kinase (11 pt).
